This is an account of results in ChEMBL document CHEMBL1201862, “PubChem BioAssay data set” (2004).

Assay type in all cases: functional
Assay [1] addresses Tyrosine-protein kinase ABL1 (Homo sapiens, UniProt P00519).
Assay [2] concerns the target Tyrosine-protein kinase Blk (Homo sapiens, UniProt P51451).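 Also: obtained as one member of a kinome-wide kinase assay panel.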
For assay [3], the target named is Macrophage colony-stimulating factor 1 receptor (Homo sapiens, UniProt P07333).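 Also: value comes from the Navigating the Kinome screening panel, CSF1R member.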
Assay [4] deals with Vascular endothelial growth factor receptor 1 (Homo sapiens, UniProt P17948).
For assay [5], the target named is Receptor-type tyrosine-protein kinase FLT3 (Homo sapiens, UniProt P36888).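 Also: FLT3 was tested as one member of a kinome-wide kinase panel.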
Sequence of Receptor-type tyrosine-protein kinase FLT3 (P36888 whole entry): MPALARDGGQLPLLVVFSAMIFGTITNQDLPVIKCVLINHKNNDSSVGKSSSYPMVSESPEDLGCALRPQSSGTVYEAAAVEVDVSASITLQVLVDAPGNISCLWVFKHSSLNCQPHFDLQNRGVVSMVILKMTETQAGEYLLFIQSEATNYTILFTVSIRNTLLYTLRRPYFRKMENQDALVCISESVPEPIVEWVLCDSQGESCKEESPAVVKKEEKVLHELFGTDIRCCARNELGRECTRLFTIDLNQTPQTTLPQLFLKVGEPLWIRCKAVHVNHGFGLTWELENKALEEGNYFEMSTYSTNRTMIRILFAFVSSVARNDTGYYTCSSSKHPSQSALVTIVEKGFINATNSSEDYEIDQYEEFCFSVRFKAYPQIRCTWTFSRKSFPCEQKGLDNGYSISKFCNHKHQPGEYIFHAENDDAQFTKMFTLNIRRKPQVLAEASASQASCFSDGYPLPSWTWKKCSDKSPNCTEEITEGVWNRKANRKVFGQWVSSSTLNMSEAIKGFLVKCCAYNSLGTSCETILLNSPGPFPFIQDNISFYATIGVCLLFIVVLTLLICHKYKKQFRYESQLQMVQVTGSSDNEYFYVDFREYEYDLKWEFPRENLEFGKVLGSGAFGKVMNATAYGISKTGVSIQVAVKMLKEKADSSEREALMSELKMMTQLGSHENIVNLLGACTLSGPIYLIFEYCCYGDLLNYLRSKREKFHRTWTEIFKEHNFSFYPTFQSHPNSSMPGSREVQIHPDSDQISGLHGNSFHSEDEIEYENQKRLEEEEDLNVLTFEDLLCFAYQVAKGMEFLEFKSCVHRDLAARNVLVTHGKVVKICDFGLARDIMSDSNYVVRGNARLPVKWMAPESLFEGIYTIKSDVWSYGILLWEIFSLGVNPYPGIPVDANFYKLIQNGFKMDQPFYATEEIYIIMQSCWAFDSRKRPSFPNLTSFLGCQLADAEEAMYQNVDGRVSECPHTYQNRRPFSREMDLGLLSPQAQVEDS
Assay [6] deals with Mast/stem cell growth factor receptor Kit (Homo sapiens, UniProt P10721).
Sequence of Mast/stem cell growth factor receptor Kit (P10721 whole entry): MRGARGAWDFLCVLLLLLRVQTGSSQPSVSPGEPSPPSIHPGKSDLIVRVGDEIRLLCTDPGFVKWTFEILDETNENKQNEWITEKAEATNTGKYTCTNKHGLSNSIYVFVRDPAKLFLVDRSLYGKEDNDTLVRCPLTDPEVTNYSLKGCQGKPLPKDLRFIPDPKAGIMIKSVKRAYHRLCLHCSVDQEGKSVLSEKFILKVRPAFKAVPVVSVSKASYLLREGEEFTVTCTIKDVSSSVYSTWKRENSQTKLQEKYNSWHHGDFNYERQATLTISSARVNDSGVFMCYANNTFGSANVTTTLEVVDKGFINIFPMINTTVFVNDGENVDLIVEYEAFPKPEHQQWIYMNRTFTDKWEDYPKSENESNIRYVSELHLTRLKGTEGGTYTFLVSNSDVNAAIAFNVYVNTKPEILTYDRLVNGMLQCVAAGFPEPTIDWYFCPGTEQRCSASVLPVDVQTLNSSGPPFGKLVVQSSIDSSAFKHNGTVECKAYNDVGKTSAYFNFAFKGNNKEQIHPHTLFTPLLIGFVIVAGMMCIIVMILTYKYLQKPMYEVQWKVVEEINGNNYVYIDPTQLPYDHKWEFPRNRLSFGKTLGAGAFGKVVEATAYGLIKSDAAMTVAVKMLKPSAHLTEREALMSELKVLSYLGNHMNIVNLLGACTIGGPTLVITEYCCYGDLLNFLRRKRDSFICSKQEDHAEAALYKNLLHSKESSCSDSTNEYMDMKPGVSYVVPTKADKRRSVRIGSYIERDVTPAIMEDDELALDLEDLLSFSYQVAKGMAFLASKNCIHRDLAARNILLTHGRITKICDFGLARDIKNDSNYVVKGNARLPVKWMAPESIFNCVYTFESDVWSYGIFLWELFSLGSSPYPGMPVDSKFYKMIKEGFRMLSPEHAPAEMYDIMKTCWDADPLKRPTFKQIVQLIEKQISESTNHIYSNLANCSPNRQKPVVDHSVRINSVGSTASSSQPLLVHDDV
Assay [7] deals with Proto-oncogene tyrosine-protein kinase Src (Homo sapiens, UniProt P12931).
Sequence of Proto-oncogene tyrosine-protein kinase Src (P12931 2-536 limits assumed): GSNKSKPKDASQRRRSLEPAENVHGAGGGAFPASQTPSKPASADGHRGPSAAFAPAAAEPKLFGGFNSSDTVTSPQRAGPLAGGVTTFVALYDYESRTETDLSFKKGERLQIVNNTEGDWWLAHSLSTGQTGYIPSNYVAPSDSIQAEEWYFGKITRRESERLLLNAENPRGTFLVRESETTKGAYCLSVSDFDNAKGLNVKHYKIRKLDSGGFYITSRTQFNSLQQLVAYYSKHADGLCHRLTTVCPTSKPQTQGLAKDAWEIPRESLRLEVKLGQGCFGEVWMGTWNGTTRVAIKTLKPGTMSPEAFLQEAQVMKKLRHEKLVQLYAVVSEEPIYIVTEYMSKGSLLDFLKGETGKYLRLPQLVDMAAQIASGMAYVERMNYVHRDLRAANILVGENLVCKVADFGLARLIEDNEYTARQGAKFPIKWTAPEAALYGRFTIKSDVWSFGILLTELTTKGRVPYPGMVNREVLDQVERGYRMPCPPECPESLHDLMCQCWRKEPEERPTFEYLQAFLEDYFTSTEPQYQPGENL
The target in assay [8] is Tyrosine-protein kinase Lyn (Homo sapiens, UniProt P07948).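 Also: lyn as one member of a kinase panel.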
The target in assay [9] is Tyrosine-protein kinase Fyn (Homo sapiens, UniProt P06241).
The target of assay [10] is Vascular endothelial growth factor receptor 3 (Homo sapiens, UniProt P35916).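 Also: value from a kinome-wide profiling panel, with FLT4 as the panel member.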
In assay [11] the target is Vascular endothelial growth factor receptor 2 (Homo sapiens, UniProt P35968).
The target of assay [12] is Tyrosine-protein kinase Lck (Homo sapiens, UniProt P06239).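 Also: lck was assayed as one member of a kinase panel.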
Sequence of Tyrosine-protein kinase Lck (P06239 whole entry): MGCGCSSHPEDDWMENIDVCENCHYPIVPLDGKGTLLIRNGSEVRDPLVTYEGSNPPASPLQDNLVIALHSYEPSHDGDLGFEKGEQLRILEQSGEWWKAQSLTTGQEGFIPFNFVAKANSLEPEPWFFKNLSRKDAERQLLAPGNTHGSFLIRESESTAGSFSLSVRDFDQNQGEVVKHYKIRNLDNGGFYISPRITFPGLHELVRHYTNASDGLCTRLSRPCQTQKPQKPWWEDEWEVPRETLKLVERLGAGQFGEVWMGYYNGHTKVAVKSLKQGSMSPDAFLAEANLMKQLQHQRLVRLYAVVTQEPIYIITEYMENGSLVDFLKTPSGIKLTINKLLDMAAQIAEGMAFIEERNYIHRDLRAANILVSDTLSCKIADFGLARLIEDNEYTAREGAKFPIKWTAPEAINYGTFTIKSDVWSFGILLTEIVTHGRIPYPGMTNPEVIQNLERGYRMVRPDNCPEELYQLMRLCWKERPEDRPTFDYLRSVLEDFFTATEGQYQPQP
Assay [13] deals with Melanin-concentrating hormone receptor 1 (Homo sapiens, UniProt Q99705). Nature of the assay: Late-stage fluorescence-based counterscreen for antagonists of the G-protein coupled receptor 7 (GPR7): cell-based dose response assay to identify antagonists of the melanin-concentrating hormone receptor 1 (MCHR1) Set 5.
Sequence of Melanin-concentrating hormone receptor 1 (Q99705 whole entry): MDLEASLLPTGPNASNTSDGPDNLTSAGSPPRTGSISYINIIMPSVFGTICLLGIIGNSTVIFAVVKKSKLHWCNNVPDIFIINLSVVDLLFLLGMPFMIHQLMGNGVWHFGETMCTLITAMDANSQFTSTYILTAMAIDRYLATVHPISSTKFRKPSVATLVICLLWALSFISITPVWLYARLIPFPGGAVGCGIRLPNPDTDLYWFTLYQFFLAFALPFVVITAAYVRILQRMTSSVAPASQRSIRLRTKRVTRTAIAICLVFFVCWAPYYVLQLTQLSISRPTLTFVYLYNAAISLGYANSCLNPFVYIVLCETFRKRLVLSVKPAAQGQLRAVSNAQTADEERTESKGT
Assay [14] concerns the target T1, Neuropeptides B/W receptor type 1 (Homo sapiens, UniProt P48145).
T1 sequence (P48145 whole entry): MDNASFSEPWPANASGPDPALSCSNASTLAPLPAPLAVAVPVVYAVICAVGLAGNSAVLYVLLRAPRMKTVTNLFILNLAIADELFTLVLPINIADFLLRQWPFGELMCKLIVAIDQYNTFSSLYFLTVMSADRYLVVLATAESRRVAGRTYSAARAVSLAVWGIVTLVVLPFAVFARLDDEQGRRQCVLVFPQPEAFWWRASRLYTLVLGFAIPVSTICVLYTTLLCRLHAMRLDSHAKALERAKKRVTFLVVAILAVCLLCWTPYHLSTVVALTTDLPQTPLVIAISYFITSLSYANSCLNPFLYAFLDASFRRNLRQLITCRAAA
Nature of the assay: GPR7 antagonist potency, late-stage follow-up, cell-based, fluorescence, dose response, set 5 (AID 588566).

Active and inactive are the calls of the source.

Sequence of Tyrosine-protein kinase Blk (P51451 whole entry): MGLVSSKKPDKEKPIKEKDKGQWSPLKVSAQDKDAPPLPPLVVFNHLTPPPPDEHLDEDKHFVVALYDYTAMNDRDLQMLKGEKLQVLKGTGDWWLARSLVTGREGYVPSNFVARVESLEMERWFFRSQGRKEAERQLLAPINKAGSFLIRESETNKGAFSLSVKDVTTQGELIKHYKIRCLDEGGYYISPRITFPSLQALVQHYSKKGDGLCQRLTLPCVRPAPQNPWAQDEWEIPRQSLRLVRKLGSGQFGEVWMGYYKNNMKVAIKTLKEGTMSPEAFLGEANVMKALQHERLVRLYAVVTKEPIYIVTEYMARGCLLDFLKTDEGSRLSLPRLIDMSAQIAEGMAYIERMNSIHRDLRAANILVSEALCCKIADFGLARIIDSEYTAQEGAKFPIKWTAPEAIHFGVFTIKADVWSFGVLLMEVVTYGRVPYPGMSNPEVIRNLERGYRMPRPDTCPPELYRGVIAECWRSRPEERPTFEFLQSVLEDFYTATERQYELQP
Sequence of Tyrosine-protein kinase ABL1 (P00519 whole entry): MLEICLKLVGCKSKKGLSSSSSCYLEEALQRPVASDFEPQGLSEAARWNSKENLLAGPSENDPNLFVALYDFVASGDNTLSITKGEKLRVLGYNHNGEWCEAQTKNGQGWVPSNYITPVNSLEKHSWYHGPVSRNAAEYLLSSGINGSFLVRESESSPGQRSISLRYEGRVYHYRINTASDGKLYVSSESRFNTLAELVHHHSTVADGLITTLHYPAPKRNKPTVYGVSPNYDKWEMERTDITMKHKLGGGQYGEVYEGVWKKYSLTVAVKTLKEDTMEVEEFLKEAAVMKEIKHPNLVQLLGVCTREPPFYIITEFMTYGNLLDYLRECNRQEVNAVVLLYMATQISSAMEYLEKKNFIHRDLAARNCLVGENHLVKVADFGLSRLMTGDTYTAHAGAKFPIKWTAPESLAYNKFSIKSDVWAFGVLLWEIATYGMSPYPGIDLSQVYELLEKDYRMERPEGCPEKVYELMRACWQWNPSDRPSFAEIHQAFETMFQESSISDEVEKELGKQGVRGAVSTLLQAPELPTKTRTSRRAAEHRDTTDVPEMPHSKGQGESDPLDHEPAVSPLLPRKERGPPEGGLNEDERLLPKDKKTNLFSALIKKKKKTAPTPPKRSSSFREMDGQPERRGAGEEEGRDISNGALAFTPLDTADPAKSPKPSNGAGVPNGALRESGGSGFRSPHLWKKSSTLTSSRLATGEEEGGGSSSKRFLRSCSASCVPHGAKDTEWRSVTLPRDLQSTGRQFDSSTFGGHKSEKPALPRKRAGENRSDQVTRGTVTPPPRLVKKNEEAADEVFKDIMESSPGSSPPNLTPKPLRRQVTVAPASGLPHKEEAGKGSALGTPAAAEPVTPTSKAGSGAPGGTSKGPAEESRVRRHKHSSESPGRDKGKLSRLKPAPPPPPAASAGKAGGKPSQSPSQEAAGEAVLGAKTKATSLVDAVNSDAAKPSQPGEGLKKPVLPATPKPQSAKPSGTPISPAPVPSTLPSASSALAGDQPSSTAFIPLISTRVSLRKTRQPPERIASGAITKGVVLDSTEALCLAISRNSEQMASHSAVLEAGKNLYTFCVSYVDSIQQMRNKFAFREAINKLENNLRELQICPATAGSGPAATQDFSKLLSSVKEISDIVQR

Take `Cc1ccc(F)c(NC(=O)Nc2ccc(-c3c(F)ccc4[nH]nc(N)c34)cc2)c1`: the Ki in [1] was 0.501 µM (active); in [2], 1.58 µM (active); in assay [3], 0.00126 µM (active); in assay [4] it was 0.000251 µM (active); in assay [5], 0.000794 µM (active); in assay [6] it was 0.001 µM (active). Further, the inhibitory constant (Ki) in [7] was 0.501 µM (active); in assay [8], 0.398 µM (active); in assay [9], 0.501 µM (active); in assay [10], 0.001 µM (active); in [11], 0.00794 µM (active); in [12], 0.631 µM (active).

In the case of `N#CC(c1ccccc1)c1c(Br)cnn(Cc2cccc3ccccc23)c1=O` (centres undefined), the values for the IC50 in assay [13] and in assay [14] were 16.4 µM (inactive) and 0.116 µM (active), respectively.

Broadly, the Ki is a dissociation constant, usually derived from enzyme kinetics or from competition with a known ligand. Usually IC50 stands for the midpoint of a concentration-inhibition curve.
